Patent US20250145687A1, “MODIFIED LIGAND-GATED ION CHANNELS AND METHODS OF USE” (Howard Hughes Medical Institute, priority 2022, published 2025)
Read-outs that look alike come from different tables or passages of the source.

Key:
Type in all cases: cell-based
[1] = biological target: T1, α7^L131G,Q139L,Y217F-5HT3 V154I, R155Y, W156N, S172A (Homo sapiens, UniProt P36544, L131G/M226I/Q139L/R155Y/S172A/T225I/V154I/W156N/Y217F); assay: EC50 dose response, PSAM4-5HT3 with additional mutations; details: read-out: EC50s (SEM) for additional mutations of α7^L131G, Q139L, Y217F -5HT3
T1 construct: expressed in transfected cells; host or cells: HEK 293

[2] = biological target: T2, α7^L131G,Q139L,Y217F-5HT3 S172A (Homo sapiens, UniProt P36544, L131G/M226I/Q139L/S172A/T225I/Y217F); assay: as above; details: additional mutation S172A; read-out: EC50s (SEM) for additional mutations of α7^L131G, Q139L, Y217F -5HT3
T2 construct: expressed in transfected cells; host or cells: HEK 293

[3] = biological target: T3, α7^L131G,Q139L,Y217F-5HT3 S172I (Homo sapiens, UniProt P36544, L131G/M226I/Q139L/S172I/T225I/Y217F); assay: as above; details: additional mutation S172I; read-out: EC50s (SEM) for additional mutations of α7^L131G, Q139L, Y217F -5HT3
T3 construct: expressed in transfected cells; host or cells: HEK 293

[4] = biological target: T4, PSAM4-5HT3 (α7-5HT3^L131G,Q139L,Y217F) (Homo sapiens, UniProt P36544, L131G/M226I/Q139L/T225I/Y217F); assay: EC50 dose response of LGIC ligands on PSAM4-5HT3; details: read-out: EC50s (SEM) for additional mutations of α7^L131G, Q139L, Y217F -5HT3
T4 construct: expressed in transfected cells; host or cells: HEK 293

[5] = biological target: T5, α7^L131G,Q139L,Y217F-5HT3 H163T (Homo sapiens, UniProt P36544, H163T/L131G/M226I/Q139L/T225I/Y217F); assay: EC50 dose response, PSAM4-5HT3 with additional mutations; details: additional mutation H163T; read-out: EC50s (SEM) for additional mutations of α7^L131G, Q139L, Y217F -5HT3
T5 construct: expressed in transfected cells; host or cells: HEK 293

[6] = biological target: T6, α7^L131G,Q139L,Y217F-5HT3 V154I, R155Y, W156N, S172V (Homo sapiens, UniProt P36544, L131G/M226I/Q139L/R155Y/S172V/T225I/V154I/W156N/Y217F); assay: as above; details: read-out: EC50s (SEM) for additional mutations of α7^L131G, Q139L, Y217F -5HT3
T6 construct: expressed in transfected cells; host or cells: HEK 293

[7] = biological target: T7, α7^L131G,Q139L,Y217F-5HT3 V154L, R155Y, W156Q (Homo sapiens, UniProt P36544, L131G/M226I/Q139L/R155Y/T225I/V154L/W156Q/Y217F); assay: as above; details: read-out: EC50s (SEM) for additional mutations of α7^L131G, Q139L, Y217F -5HT3
T7 construct: expressed in transfected cells; host or cells: HEK 293

[8] = biological target: T8, α7^L131G,Q139L,Y217F-5HT3 S172V (Homo sapiens, UniProt P36544, L131G/M226I/Q139L/S172V/T225I/Y217F); assay: as above; details: additional mutation S172V; read-out: EC50s (SEM) for additional mutations of α7^L131G, Q139L, Y217F -5HT3
T8 construct: expressed in transfected cells; host or cells: HEK 293

[9] = biological target: T9, α7^L131G,Q139L,Y217F-5HT3 H163D (Homo sapiens, UniProt P36544, H163D/L131G/M226I/Q139L/T225I/Y217F); assay: as above; details: additional mutation H163D; read-out: EC50s (SEM) for additional mutations of α7^L131G, Q139L, Y217F -5HT3
T9 construct: expressed in transfected cells; host or cells: HEK 293

[10] = biological target: T10, α7-5HT3 L131G, Q139L, Y217A (Homo sapiens, UniProt P36544, L131G/M226I/Q139L/T225I/Y217A); assay: EC50 dose response, α7-5HT3 mutant; details: read-out: EC50s (SEM) for additional mutations of α7^L131G, Q139L, Y217F -5HT3
T10 construct: expressed in transfected cells; host or cells: HEK 293

[11] = biological target: T11, α7^L131G,Q139L,Y217F-5HT3 H163R (Homo sapiens, UniProt P36544, H163R/L131G/M226I/Q139L/T225I/Y217F); assay: EC50 dose response, PSAM4-5HT3 with additional mutations; details: additional mutation H163R; read-out: EC50s (SEM) for additional mutations of α7^L131G, Q139L, Y217F -5HT3
T11 construct: expressed in transfected cells; host or cells: HEK 293

[12] = biological target: T12, α7-5HT3 L131G, Q139L, W171F (Homo sapiens, UniProt P36544, L131G/M226I/Q139L/T225I/W171F); assay: EC50 dose response, α7-5HT3 mutant; details: read-out: EC50s (SEM) for additional mutations of α7^L131G, Q139L, Y217F -5HT3
T12 construct: expressed in transfected cells; host or cells: HEK 293

[13] = biological target: T13, α7^L131G,Q139L,Y217F-5HT3 W156N, H163T (Homo sapiens, UniProt P36544, H163T/L131G/M226I/Q139L/T225I/W156N/Y217F); assay: EC50 dose response, PSAM4-5HT3 with additional mutations; details: read-out: EC50s (SEM) for additional mutations of α7^L131G, Q139L, Y217F -5HT3
T13 construct: expressed in transfected cells; host or cells: HEK 293

[14] = biological target: T14, α7-5HT3 L131G, Q139L, Y217H (Homo sapiens, UniProt P36544, L131G/M226I/Q139L/T225I/Y217H); assay: EC50 dose response, α7-5HT3 mutant; details: read-out: EC50s (SEM) for additional mutations of α7^L131G, Q139L, Y217F -5HT3
T14 construct: expressed in transfected cells; host or cells: HEK 293

[15] = biological target: T15, α7^L131G,Q139L,Y217F-5HT3 H163F (Homo sapiens, UniProt P36544, H163F/L131G/M226I/Q139L/T225I/Y217F); assay: EC50 dose response, PSAM4-5HT3 with additional mutations; details: additional mutation H163F; read-out: EC50s (SEM) for additional mutations of α7^L131G, Q139L, Y217F -5HT3
T15 construct: expressed in transfected cells; host or cells: HEK 293

[16] = biological target: T16, α7^L131G,Q139L,Y217F-5HT3 H163V (Homo sapiens, UniProt P36544, H163V/L131G/M226I/Q139L/T225I/Y217F); assay: as above; details: additional mutation H163V; read-out: EC50s (SEM) for additional mutations of α7^L131G, Q139L, Y217F -5HT3
T16 construct: expressed in transfected cells; host or cells: HEK 293

[17] = biological target: T17, α7^L131G,Q139L,Y217F-5HT3 H163S (Homo sapiens, UniProt P36544, H163S/L131G/M226I/Q139L/T225I/Y217F); assay: as above; details: additional mutation H163S; read-out: EC50s (SEM) for additional mutations of α7^L131G, Q139L, Y217F -5HT3
T17 construct: expressed in transfected cells; host or cells: HEK 293

[18] = biological target: T18, α7^L131G,Q139L,Y217F-5HT3 W156N (Homo sapiens, UniProt P36544, L131G/M226I/Q139L/T225I/W156N/Y217F); assay: cell-based
T18 construct: expressed in transfected cells; host or cells: HEK 293

[19] = biological target: T19, α7^L131G,Q139L,Y217F-5HT3 H163N (Homo sapiens, UniProt P36544, H163N/L131G/M226I/Q139L/T225I/Y217F); assay: EC50 dose response, PSAM4-5HT3 with additional mutations; details: additional mutation H163N; read-out: EC50s (SEM) for additional mutations of α7^L131G, Q139L, Y217F -5HT3
T19 construct: expressed in transfected cells; host or cells: HEK 293

[20] = biological target: T20, α7^L131G,Q139L,Y217F-5HT3 H163T, S172A (Homo sapiens, UniProt P36544, H163T/L131G/M226I/Q139L/S172A/T225I/Y217F); assay: as above; details: read-out: EC50s (SEM) for additional mutations of α7^L131G, Q139L, Y217F -5HT3
T20 construct: expressed in transfected cells; host or cells: HEK 293

[21] = biological target: T21, α7^L131G,Q139L,Y217F-5HT3 H163A (Homo sapiens, UniProt P36544, H163A/L131G/M226I/Q139L/T225I/Y217F); assay: as above; details: additional mutation H163A; read-out: EC50s (SEM) for additional mutations of α7^L131G, Q139L, Y217F -5HT3
T21 construct: expressed in transfected cells; host or cells: HEK 293

[22] = biological target: T22, α7-5HT3 L131G, Q139L, Y217V (Homo sapiens, UniProt P36544, L131G/M226I/Q139L/T225I/Y217V); assay: EC50 dose response, α7-5HT3 mutant; details: read-out: EC50s (SEM) for additional mutations of α7^L131G, Q139L, Y217F -5HT3
T22 construct: 5HT3 ion pore domain (fusion partner); expressed in transfected cells; HEK 293 is named only for the electrophysiology

[23] = biological target: T23, α7^L131G,Q139L,Y217F-5HT3 V154I, R155Y, W156N (Homo sapiens, UniProt P36544, L131G/M226I/Q139L/R155Y/T225I/V154I/W156N/Y217F); assay: EC50 dose response, PSAM4-5HT3 with additional mutations; details: read-out: EC50s (SEM) for additional mutations of α7^L131G, Q139L, Y217F -5HT3
T23 construct: expressed in transfected cells; host or cells: HEK 293

[24] = biological target: T24, α7^L131G,Q139L,Y217F-5HT3 H163T, S172V (Homo sapiens, UniProt P36544, H163T/L131G/M226I/Q139L/S172V/T225I/Y217F); assay: as above; details: read-out: EC50s (SEM) for additional mutations of α7^L131G, Q139L, Y217F -5HT3
T24 construct: expressed in transfected cells; host or cells: HEK 293

[25] = biological target: T25, α7^L131G,Q139L,Y217F-5HT3 H163K (Homo sapiens, UniProt P36544, H163K/L131G/M226I/Q139L/T225I/Y217F); assay: as above; details: additional mutation H163K; read-out: EC50s (SEM) for additional mutations of α7^L131G, Q139L, Y217F -5HT3
T25 construct: expressed in transfected cells; host or cells: HEK 293
T25 sequence (P36544 with tags, fused parts or gaps L131G/Q139L/H163K/Y217F/T225I/M226I limits assumed): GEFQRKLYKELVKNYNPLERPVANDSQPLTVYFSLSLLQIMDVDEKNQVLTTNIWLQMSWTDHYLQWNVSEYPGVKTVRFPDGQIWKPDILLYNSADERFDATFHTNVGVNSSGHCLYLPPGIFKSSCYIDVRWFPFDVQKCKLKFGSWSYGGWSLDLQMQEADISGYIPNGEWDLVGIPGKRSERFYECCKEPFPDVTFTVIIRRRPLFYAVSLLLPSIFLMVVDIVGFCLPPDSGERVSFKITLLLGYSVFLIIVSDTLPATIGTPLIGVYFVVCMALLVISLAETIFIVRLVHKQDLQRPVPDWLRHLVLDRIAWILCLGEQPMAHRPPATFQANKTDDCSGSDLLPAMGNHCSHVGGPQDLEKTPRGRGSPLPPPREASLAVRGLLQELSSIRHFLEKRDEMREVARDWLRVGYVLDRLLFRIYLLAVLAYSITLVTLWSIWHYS

T4 sequence (P36544 with tags, fused parts or gaps L131G/Q139L/Y217F/T225I/M226I limits assumed): as the sequence (P36544 with tags, fused parts or gaps L131G/Q139L/H163K/Y217F/T225I/M226I limits assumed) above, with K141H counted along it
T10 sequence (P36544 with tags, fused parts or gaps L131G/Q139L/Y217A/T225I/M226I limits assumed): as the sequence (P36544 with tags, fused parts or gaps L131G/Q139L/H163K/Y217F/T225I/M226I limits assumed) above, with K141H, F195A counted along it
T7 sequence (P36544 with tags, fused parts or gaps L131G/Q139L/V154L/R155Y/W156Q/Y217F/T225I/M226I limits assumed): as the sequence (P36544 with tags, fused parts or gaps L131G/Q139L/H163K/Y217F/T225I/M226I limits assumed) above, with V132L, R133Y, W134Q, K141H counted along it
T15 sequence (P36544 with tags, fused parts or gaps L131G/Q139L/H163F/Y217F/T225I/M226I limits assumed): as the sequence (P36544 with tags, fused parts or gaps L131G/Q139L/H163K/Y217F/T225I/M226I limits assumed) above, with K141F counted along it
T2 sequence (P36544 with tags, fused parts or gaps L131G/Q139L/S172A/Y217F/T225I/M226I limits assumed): as the sequence (P36544 with tags, fused parts or gaps L131G/Q139L/H163K/Y217F/T225I/M226I limits assumed) above, with K141H, S150A counted along it
T3 sequence (P36544 with tags, fused parts or gaps L131G/Q139L/S172I/Y217F/T225I/M226I limits assumed): as the sequence (P36544 with tags, fused parts or gaps L131G/Q139L/H163K/Y217F/T225I/M226I limits assumed) above, with K141H, S150I counted along it
T13 sequence (P36544 with tags, fused parts or gaps L131G/Q139L/W156N/H163T/Y217F/T225I/M226I limits assumed): as the sequence (P36544 with tags, fused parts or gaps L131G/Q139L/H163K/Y217F/T225I/M226I limits assumed) above, with W134N, K141T counted along it
T20 sequence (P36544 with tags, fused parts or gaps L131G/Q139L/H163T/S172A/Y217F/T225I/M226I limits assumed): as the sequence (P36544 with tags, fused parts or gaps L131G/Q139L/H163K/Y217F/T225I/M226I limits assumed) above, with K141T, S150A counted along it
T9 sequence (P36544 with tags, fused parts or gaps L131G/Q139L/H163D/Y217F/T225I/M226I limits assumed): as the sequence (P36544 with tags, fused parts or gaps L131G/Q139L/H163K/Y217F/T225I/M226I limits assumed) above, with K141D counted along it
T21 sequence (P36544 with tags, fused parts or gaps L131G/Q139L/H163A/Y217F/T225I/M226I limits assumed): as the sequence (P36544 with tags, fused parts or gaps L131G/Q139L/H163K/Y217F/T225I/M226I limits assumed) above, with K141A counted along it

C[N+](C)(C)CCO [Choline, choline, reference compound]
EC50 [1]: 680 µM
EC50 [2]: 349 µM
EC50 [3]: 1110 µM
EC50 ([4]; PSAM4-5HT3 (no additional mutation)): 143 µM
EC50 ([4]; line L131G, Q139L, Y217F (same values as PSAM4-5HT3 line)): 143 µM
EC50 [5]: 330 µM
EC50 [6]: 910 µM
EC50 [7]: 94 µM
EC50 [8]: 895 µM
EC50 [9]: 361 µM
EC50 [10]: 832 µM
EC50 [11]: 153 µM
EC50 [12]: 177 µM
EC50 [13]: 646 µM
EC50 [14]: 2060 µM
EC50 [15]: 230 µM
EC50 [16]: 508 µM
EC50 [17]: 245 µM
EC50 [18]: 172 µM
EC50 [19]: 107 µM
EC50 [20]: 1020 µM
EC50 [21]: 219 µM
EC50 [22]: 1160 µM
EC50 [23]: 330 µM
EC50 [24]: 1330 µM
EC50 [25]: 168 µM
